Literature values in US5891469A, “Solid Coprecipitates for enhanced bioavailability of lipophilic substances” (Pharmos Corporation, priority 1997, dated 1999).

How the values were obtained:
[1] = for solubility in aqueous solutions: cannabinoids, depending upon the conditions (Garret and Hunt 1974)
[2] = like other lipophilic drugs

For `COC1=C(OC)C(=O)C(C/C=C(\C)CC/C=C(\C)CC/C=C(\C)CC/C=C(\C)CC/C=C(\C)CC/C=C(\C)CC/C=C(\C)CC/C=C(\C)CC/C=C(\C)CCC=C(C)C)=C(C)C1=O` [Coenzyme Q10, 2,3-dimethoxy-5-methyl-6-decaprenyl-1,4-benzoquinone], the “solubility in water (in words)” value ([1]; due to long side chain of 10 isoprenoid units) is listed as “practically insoluble in water”.
For `CCCCCCC(C)(C)c1cc(O)c2c(c1)OC(C)(C)[C@H]1CC=C(CO)C[C@H]21` [Dexanabinol, (+)-(3S, 4S)-7-hydroxy-Δ^6-tetra hydrocannabinol-1,1-dimetylheptyl], the oral bioavailability [2] is listed as “poor oral bioavailability” and the solubility in water ([1]; practically insoluble in water) is listed as “less than 50 μg/ml”.
For `C=C(C)[C@@H]1CCC(C)=C[C@H]1c1c(O)cc(CCCCC)cc1O` [cannabidiol], the “solubility in aqueous solutions” value [1] is given as “a few micrograms/ml or less”.
In the case of `CCCCCc1cc(O)c2c(c1)OC(C)(C)c1ccc(C)cc1-2` [cannabinol], the “solubility in aqueous solutions” value [1] is given as “a few micrograms/ml or less”.
In the case of `CCCCCc1cc(O)c2c(c1)OC(C)(C)[C@@H]1CCC(C)=C[C@@H]21` [tetrahydrocannabinol (THC), tetrahydrocannabinol], the maximal plasma levels (oral dosing of 20 mg THC in a sesame oil formulation (Wall et al. 1983)) is listed as “around 10 ng/ml” and the “human bioavailability following oral ingestion, mean estimates” value (oral, depending on the vehicle used) is listed as 6 to 12%.
For `CCCCCc1cc(O)c2c(c1)OC(C)(C)[C@@H]1CCC(C)=C[C@@H]21` [Δ^1 -tetrahydrocannabinol (Δ^1 -THC), Δ^1 -tetrahydrocannabinol], the “solubility in aqueous solutions” value [1] is listed as “a few micrograms/ml or less”.
For `CCCCCc1cc(O)c2c(c1)OC(C)(C)[C@@H]1CC=C(C)C[C@@H]21` [Δ^6 -tetrahydrocannabinol (Δ^6 -THC), Δ^6 -tetrahydrocannabinol], the “solubility in aqueous solutions” value [1] is listed as “a few micrograms/ml or less”.
